According to US20130303562A1, “CHEMICAL AND RNAI SUPPRESSORS OF NEUROTOXICITY IN HUNTINGTON'S DISEASE” (priority 2010, published 2013):
“Also recorded” adds a separate entry of the source.

Tests used:
Drosophila HD model = assay: Early dosing of carbenoxolone in Drosophila HD model (lifespan, motor control); format: in vivo
[1] = system: subject carrying a polyQ tract expansion mutation in the Huntingtin gene; assay: Carbenoxolone in pre-symptomatic HD patients; format: in vivo, human; settings: administered before clinical symptoms manifest, from about 150 mg/day
Experimental: After a period of time sufficient for a change in a cortisol level to manifest, e.g. after about a week, about two weeks, about three weeks, or about a month, the cortisol level in the subject is measured. […] For example, in some embodiments, the dose may be increased from about 150 mg/day to about 300 mg/day. In some embodiments, the cortisol level in the subject is measured again after dose adjustment and, if the cortisol level remains elevated, the dose is increased further. For example, in some embodiments, the dose may be increased from about 300 mg/day to about 450 mg/day. In some embodiments, multiple cycles of dose adjustment and cortisol level measurement are performed until a desired cortisol level is observed in the subject, for example, a blood plasma cortisol level within the range of 70-700 nmol/l or 70-350 nmol/l. For example, in some embodiments, the dose may be increased from about 150 mg/day to about 300 mg/day in a first dose adjustment, then to about 450 mg/day, then to about 500 mg/day, then to about 600 mg/day. […] In some cases, the dosage may be decreased below 150 mg/day, particularly, where a desired reduction in a cortisol level is still observed with lower doses. […]

gap junction = settings: cited from earlier work
HD model strain mice = assay: Rotarod assay in HD model strain mice; format: in vivo, mouse; settings: treated from 4 weeks, tested at 8 weeks of age, vs untreated HD mice
Description: Mouse strains: Mouse strain names provided herein adhere to the Guidelines for Nomenclature of Mouse and Rat Strains, Revised October 2011, International Committee on Standardized Genetic Nomenclature for Mice, accessible at www.informatics.jax.org/mgihome/nomen/strains.shtml. Official gene symbols, or, where appropriate, official mouse strain names of the Jackson Laboratory (www.jax.org, e.g., the Jackson Laboratory Mice Database at jaxmice.jax.org) are used. […]
Rotarod assay: Mice are habituated to balancing on a slowly rotating rotarod (5 rpm). […] The time to fall off the rod, onto a platform located ˜30 cm below the rod, is measured. The increase in latency to fall during the course of training is compared between four groups of mice for each candidate compound to be evaluated (Mutant+candidate, mutant no candidate, wild type+candidate, wild type no candidate). […]
At 8 weeks of age, motor and cognitive performance are tested in rotarod and water maze assays. Untreated mice are expected to show a significant impairment of motor and cognitive capabilities at 8 weeks of age, as measured by a shortened latency to fall in the rotarod assay, and a lengthened latency to escape in the water maze assy, respectively, as compared to wid type control mice.

[2] = system: HD larvae (Elav^c155-GAL4; UAS-Htt-Q138/+); assay: In vivo rescue: viability of HD larvae after 5-day drug dosing in liquid culture; design: species or system Drosophila; settings: larvae reared in liquid culture, 5-day dosing, compared to DMSO-treated controls
Experimental: In vivo Rescue studies: For small molecule in vivo rescue studies, Elav^c155; UAS-Htt-Q138-mRFP^1, UAS-mCD8-GFP/+1st instar larvae were collected en-masse and dispensed into liquid yeast media (10 larvae/well) containing therapeutic agents at three different concentrations as described in the results (n=8 replicas/concentration). Cultures were reared at 21° C. and larval viability was assessed after 5 days and the mean number of living Htt138Q larvae (i.e. GFP^+, Htt138QmRFP^+, and mobile) was tabulated, and expressed as a percentage of total larvae/well. For genetic rescue studies with lkb1, two Htt138Q strains were utilized: a strong expressing line, UAS-Htt138QmRFP^1 which is pharate lethal when crossed to Elav^c155, and a weaker expressing line, UAS-Htt138QmRFP^2 which survives to adulthood and is viable for a number of weeks. Using the strong line, pharate lethality at 25° C. was calculated after lkb1 (lkb1^4B1-11 and lkb1^4A4-2 alleles) was introduced into an Elav^c155, UAS-Htt/+background. Lkb1^4B1-11 is a premature truncation allele (Q98>Stop), and lkb1^4A4-2 is an EMS null allele (589 b.p. deletion removing 150 b.p. of the 5′ UTR, the start codon and the beginning of the open reading frame). For Top1 in vivo analysis, Elav^c155, Top^112 recombinants were generated and crossed to UAS-Htt138QmRFP^1.
To further examine the RNAi/small molecule screen hits, we assayed in vivo efficacy by testing their ability to rescue lethality in our Drosophila HD model. […] Specific inhibitors of Lkb1 were not available for in vivo testing.

With CC1(C)[C@@H](OC(=O)CCC(=O)O)CC[C@]2(C)[C@H]3C(=O)C=C4[C@@H]5C[C@@](C)(C(=O)O)CC[C@]5(C)CC[C@@]4(C)[C@]3(C)CC[C@@H]12 [Carbenoxolone] the “Motor control / chorea (defective motor coordination)” value (Drosophila HD model; Drosophila HD model) was “improves motor control; also recorded: improves chorea”, the “Drosophila HD model lifespan” value (Drosophila HD model; early dosing) was “extends Drosophila HD model lifespan” and the “Onset and severity of HD symptoms” value [1] was “prevention or delay of the onset, and/or an amelioration of the severity of at least one HD symptom”. For the same molecule, the Gap junction activity (gap junction) was “block gap junction activity”, the “Impairment of motor capabilities (latency to fall, rotarod)” value (HD model strain mice) was “lesser degree of impairment” and the “Viability of Htt-Q138 expressing larvae / rescue of Htt-Q138 lethality” value [2] was “comparable activity”. For the same molecule, the “Viability of Htt-Q138 expressing larvae / rescue of Htt-Q138 lethality” value ([2]; listed as carbenoxolone) was “rescue HD toxicity in vivo”.
